Test results: the NIST ThermoML archive (doi:10.1016/j.tca.2007.03.018)
“And” between values parts separate entries of the source, which are not always exact repeats. Equal entries are not always repeated. ± gives the expanded uncertainty stated by the source.

Assay: molar heat capacity at saturation pressure
Conditions: Crystal 3, Small (less than 1 g) adiabatic calorimetry

C1C2CC3CC1CC(C14CC5CC(CC(C5)C1)C4)(C2)C3 [1,1'-biadamantane]
Conditions | molar heat capacity
5.12 K | 0.3991 ± 0.028 J/K/mol
5.48 K | 0.4822 ± 0.029 J/K/mol
5.83 K | 0.5877 ± 0.031 J/K/mol
6.16 K | 0.685 ± 0.033 J/K/mol
6.52 K | 0.8082 ± 0.035 J/K/mol
6.89 K | 0.9715 ± 0.038 J/K/mol
7.26 K | 1.141 ± 0.041 J/K/mol
7.65 K | 1.358 ± 0.044 J/K/mol
8.06 K | 1.589 ± 0.048 J/K/mol
8.49 K | 1.895 ± 0.053 J/K/mol
8.96 K | 2.209 ± 0.058 J/K/mol
9.44 K | 2.572 ± 0.064 J/K/mol
9.95 K | 2.983 ± 0.07 J/K/mol
10.48 K | 3.464 ± 0.077 J/K/mol
11.04 K | 3.988 ± 0.085 J/K/mol
11.61 K | 4.561 ± 0.092 J/K/mol
12.2 K | 5.242 ± 0.1 J/K/mol
12.83 K | 5.943 ± 0.11 J/K/mol
13.49 K | 6.781 ± 0.12 J/K/mol
14.18 K | 7.626 ± 0.13 J/K/mol
14.87 K | 8.538 ± 0.14 J/K/mol
15.63 K | 9.556 ± 0.15 J/K/mol
16.43 K | 10.67 ± 0.17 J/K/mol
17.24 K | 11.86 ± 0.18 J/K/mol
18.08 K | 13.09 ± 0.19 J/K/mol
18.95 K | 14.44 ± 0.2 J/K/mol
19.88 K | 15.84 ± 0.21 J/K/mol
20.83 K | 17.31 ± 0.22 J/K/mol
21.82 K | 18.74 ± 0.23 J/K/mol
22.89 K | 20.35 ± 0.24 J/K/mol
22.95 K | 20.46 ± 0.24 J/K/mol
24.01 K | 21.99 ± 0.25 J/K/mol
24.06 K | 22.16 ± 0.25 J/K/mol
25.22 K | 23.79 ± 0.26 J/K/mol
26.48 K | 25.74 ± 0.26 J/K/mol
27.75 K | 27.57 ± 0.27 J/K/mol
29.1 K | 29.32 ± 0.27 J/K/mol
30.54 K | 31.4 ± 0.26 J/K/mol
31.99 K | 33.13 ± 0.27 J/K/mol
33.46 K | 34.98 ± 0.28 J/K/mol
34.99 K | 36.71 ± 0.28 J/K/mol
36.59 K | 38.54 ± 0.29 J/K/mol
38.25 K | 40.44 ± 0.3 J/K/mol
40.03 K | 42.38 ± 0.31 J/K/mol
41.9 K | 44.38 ± 0.32 J/K/mol
43.85 K | 46.11 ± 0.33 J/K/mol
45.82 K | 48.13 ± 0.34 J/K/mol
47.8 K | 49.99 ± 0.35 J/K/mol
49.9 K | 51.98 ± 0.36 J/K/mol
52.16 K | 54.02 ± 0.37 J/K/mol
56.79 K | 58.28 ± 0.39 J/K/mol
59.06 K | 60 ± 0.4 J/K/mol
61.48 K | 62.21 ± 0.41 J/K/mol
64.1 K | 64.5 ± 0.42 J/K/mol
66.87 K | 66.86 ± 0.43 J/K/mol
69.6 K | 69.08 ± 0.45 J/K/mol
72.27 K | 71.72 ± 0.46 J/K/mol
74.94 K | 73.93 ± 0.47 J/K/mol
77.75 K | 76.41 ± 0.48 J/K/mol
78.69 K | 77.62 ± 0.49 J/K/mol
80.6 K | 79.18 ± 0.5 J/K/mol
81.1 K | 79.65 ± 0.5 J/K/mol
83.35 K | 81.61 ± 0.51 J/K/mol
83.41 K | 81.57 ± 0.51 J/K/mol
85.61 K | 83.56 ± 0.52 J/K/mol
86.26 K | 84.36 ± 0.52 J/K/mol
87.88 K | 85.72 ± 0.53 J/K/mol
89.1 K | 86.73 ± 0.53 J/K/mol
90.15 K | 87.8 ± 0.55 J/K/mol
91.92 K | 89.55 ± 0.56 J/K/mol
92.41 K | 89.88 ± 0.56 J/K/mol
94.69 K | 91.96 ± 0.57 J/K/mol
96.97 K | 94.12 ± 0.58 J/K/mol
99.26 K | 96.28 ± 0.59 J/K/mol
101.55 K | 98.53 ± 0.59 J/K/mol
103.84 K | 100.69 ± 0.6 J/K/mol
106.12 K | 102.85 ± 0.61 J/K/mol
108.41 K | 105.09 ± 0.62 J/K/mol
110.71 K | 107.17 ± 0.63 J/K/mol
113 K | 109.58 ± 0.64 J/K/mol
115.31 K | 111.83 ± 0.65 J/K/mol
117.61 K | 113.99 ± 0.66 J/K/mol
119.9 K | 116.15 ± 0.66 J/K/mol
122.2 K | 118.56 ± 0.67 J/K/mol
124.49 K | 120.81 ± 0.68 J/K/mol
126.77 K | 123.05 ± 0.69 J/K/mol
129.06 K | 125.38 ± 0.7 J/K/mol
130.26 K | 126.5 ± 0.7 J/K/mol
131.34 K | 127.63 ± 0.71 J/K/mol
132.68 K | 129 ± 0.7 J/K/mol
134.96 K | 131.3 ± 0.7 J/K/mol
137.24 K | 133.6 ± 0.7 J/K/mol
139.51 K | 135.9 ± 0.7 J/K/mol
141.78 K | 138.2 ± 0.8 J/K/mol
144.05 K | 140.5 ± 0.8 J/K/mol
146.32 K | 142.9 ± 0.8 J/K/mol
148.59 K | 145.3 ± 0.8 J/K/mol
150.84 K | 147.7 ± 0.8 J/K/mol
153.1 K | 150.1 ± 0.8 J/K/mol
155.35 K | 152.4 ± 0.8 J/K/mol
157.59 K | 154.7 ± 0.8 J/K/mol
159.84 K | 157.1 ± 0.8 J/K/mol
162.08 K | 159.6 ± 0.8 J/K/mol
164.32 K | 161.9 ± 0.8 J/K/mol
166.57 K | 164.4 ± 0.9 J/K/mol
168.8 K | 166.9 ± 0.9 J/K/mol
171.03 K | 169.3 ± 0.9 J/K/mol
173.25 K | 171.7 ± 0.9 J/K/mol
175.46 K | 174.2 ± 0.9 J/K/mol
177.68 K | 176.7 ± 0.9 J/K/mol
179.89 K | 179.2 ± 0.9 J/K/mol
182.09 K | 181.7 ± 0.9 J/K/mol
184.28 K | 184.2 ± 0.9 J/K/mol
186.47 K | 186.7 ± 0.9 J/K/mol
188.65 K | 189.2 ± 1 J/K/mol
190.83 K | 191.6 ± 1 J/K/mol
193 K | 194.2 ± 1 J/K/mol
195.17 K | 196.7 ± 1 J/K/mol
197.33 K | 199.3 ± 1 J/K/mol
199.49 K | 201.8 ± 1 J/K/mol
201.65 K | 204.5 ± 1 J/K/mol
203.8 K | 207.1 ± 1 J/K/mol
205.94 K | 209.8 ± 1 J/K/mol
208.08 K | 212.4 ± 1.1 J/K/mol
210.21 K | 215 ± 1.1 J/K/mol
212.34 K | 217.7 ± 1.1 J/K/mol
214.46 K | 220.3 ± 1.1 J/K/mol
216.58 K | 222.9 ± 1.1 J/K/mol
217.18 K | 223.7 ± 1.1 J/K/mol
218.7 K | 225.6 ± 1.1 J/K/mol
219.55 K | 226.6 ± 1.1 J/K/mol
220.81 K | 228.3 ± 1.1 J/K/mol
221.81 K | 229.5 ± 1.1 J/K/mol
222.91 K | 231 ± 1.1 J/K/mol
224.05 K | 232.4 ± 1.1 J/K/mol
225.01 K | 233.7 ± 1.1 J/K/mol
226.29 K | 235.3 ± 1.1 J/K/mol
228.52 K | 238.3 ± 1.2 J/K/mol
230.75 K | 241.1 ± 1.2 J/K/mol
232.97 K | 244 ± 1.2 J/K/mol
235.18 K | 246.9 ± 1.2 J/K/mol
237.39 K | 249.9 ± 1.2 J/K/mol
239.59 K | 252.9 ± 1.2 J/K/mol
241.79 K | 255.7 ± 1.2 J/K/mol
243.98 K | 258.7 ± 1.2 J/K/mol
246.17 K | 261.7 ± 1.2 J/K/mol
248.35 K | 264.6 ± 1.3 J/K/mol
250.52 K | 267.6 ± 1.3 J/K/mol
252.71 K | 270.6 ± 1.3 J/K/mol
254.88 K | 273.6 ± 1.3 J/K/mol
257.04 K | 276.7 ± 1.3 J/K/mol
259.19 K | 279.8 ± 1.3 J/K/mol
261.34 K | 282.9 ± 1.3 J/K/mol
263.48 K | 286 ± 1.3 J/K/mol
265.62 K | 289.2 ± 1.4 J/K/mol
267.75 K | 292 ± 1.4 J/K/mol
269.87 K | 295.1 ± 1.4 J/K/mol
271.98 K | 298.2 ± 1.4 J/K/mol
274.09 K | 301.2 ± 1.4 J/K/mol
275.74 K | 303.3 ± 1.4 J/K/mol
276.2 K | 304.1 ± 1.4 J/K/mol
277.54 K | 306 ± 1.4 J/K/mol
278.29 K | 307.1 ± 1.4 J/K/mol
279.26 K | 308.4 ± 1.4 J/K/mol
280.39 K | 310.1 ± 1.4 J/K/mol
280.98 K | 311 ± 1.4 J/K/mol
282.47 K | 313.1 ± 1.5 J/K/mol
282.68 K | 313.6 ± 1.5 J/K/mol
284.38 K | 316 ± 1.5 J/K/mol
284.56 K | 316 ± 1.5 J/K/mol
286.08 K | 318.6 ± 1.5 J/K/mol
286.65 K | 319.1 ± 1.5 J/K/mol
287.78 K | 321.1 ± 1.5 J/K/mol
288.72 K | 322.2 ± 1.5 J/K/mol
289.47 K | 323.6 ± 1.5 J/K/mol
290.79 K | 325 ± 1.5 J/K/mol
291.16 K | 325.9 ± 1.5 J/K/mol
292.84 K | 328 ± 1.5 J/K/mol and 328.3 ± 1.5 J/K/mol
294.52 K | 330.7 ± 1.5 J/K/mol
294.89 K | 331.1 ± 1.5 J/K/mol
296.19 K | 333.2 ± 1.5 J/K/mol
296.94 K | 334 ± 1.5 J/K/mol
297.87 K | 335.4 ± 1.5 J/K/mol
298.98 K | 336.9 ± 1.5 J/K/mol
299.54 K | 338 ± 1.6 J/K/mol
301.01 K | 339.9 ± 1.6 J/K/mol
301.2 K | 340.6 ± 1.6 J/K/mol
302.86 K | 342.9 ± 1.6 J/K/mol
303.04 K | 342.7 ± 1.6 J/K/mol
304.51 K | 345.2 ± 1.6 J/K/mol
305.05 K | 345.7 ± 1.6 J/K/mol
